The values that follow come from ChEMBL document CHEMBL1909046, “DrugMatrix in vitro pharmacology data”.

The IC50 is the midpoint of a concentration-inhibition curve. In general, Ki refers to a measure of affinity in units of concentration, obtained from inhibition or displacement.

Each structure is given as a SMILES string.

Assay [1] deals with T1, Alpha-2A adrenergic receptor (Homo sapiens, UniProt P08913).
T1 sequence (P08913 whole entry): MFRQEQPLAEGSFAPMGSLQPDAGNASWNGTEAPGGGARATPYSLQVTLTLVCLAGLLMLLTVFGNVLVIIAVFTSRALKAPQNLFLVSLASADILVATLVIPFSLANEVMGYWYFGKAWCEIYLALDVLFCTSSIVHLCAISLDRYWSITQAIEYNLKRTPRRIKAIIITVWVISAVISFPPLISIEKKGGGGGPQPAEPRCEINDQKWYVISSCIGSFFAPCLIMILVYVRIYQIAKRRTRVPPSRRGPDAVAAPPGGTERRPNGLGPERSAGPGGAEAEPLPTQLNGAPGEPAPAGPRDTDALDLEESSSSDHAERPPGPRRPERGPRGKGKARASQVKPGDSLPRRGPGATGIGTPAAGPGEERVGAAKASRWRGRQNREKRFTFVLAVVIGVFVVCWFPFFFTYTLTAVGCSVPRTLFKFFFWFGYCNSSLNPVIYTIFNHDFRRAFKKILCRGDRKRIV
The class given is cell membranes, Sf9, Membrane. To be noted: for Ki: read-out: Ki.

For assay [2], the target named is Beta-3 adrenergic receptor (Homo sapiens, UniProt P13945). Nature of the assay: DRUGMATRIX: Adrenergic beta3 radioligand binding (ligand: [125I] Cyanopindolol). Type of assay: cell membranes, HEK293, Membrane. To be noted: hek293; Not Active = under 50% inhibition at 10 µM.
Sequence of Beta-3 adrenergic receptor (P13945 whole entry): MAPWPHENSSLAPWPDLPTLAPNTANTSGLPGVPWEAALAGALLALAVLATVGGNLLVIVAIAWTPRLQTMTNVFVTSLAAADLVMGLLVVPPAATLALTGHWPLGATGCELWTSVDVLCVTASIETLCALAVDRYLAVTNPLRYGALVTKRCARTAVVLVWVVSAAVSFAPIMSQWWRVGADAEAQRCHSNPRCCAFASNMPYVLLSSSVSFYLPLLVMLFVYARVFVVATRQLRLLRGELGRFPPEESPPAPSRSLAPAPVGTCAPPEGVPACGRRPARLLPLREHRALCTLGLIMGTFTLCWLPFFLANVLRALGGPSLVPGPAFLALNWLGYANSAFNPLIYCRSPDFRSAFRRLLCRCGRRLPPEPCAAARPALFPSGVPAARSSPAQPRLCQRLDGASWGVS
Assay [3] can be described thus: DRUGMATRIX: Sigma2 radioligand binding (ligand: [3H] Ifenprodil). The class given is cell membranes, Rattus norvegicus, Wistar, Brain, Membrane. The note with it: Not Active = under 50% inhibition at 10 µM.
A further assay addresses Vasopressin V1a receptor (Homo sapiens, UniProt P37288). The class given is cell membranes, Membrane. To be noted: hek293.
Assay [4] is described as follows: DRUGMATRIX: Glutamate, NMDA, Agonism radioligand binding (ligand: [3H] CGP-39653). Type of assay: cell membranes, Rattus norvegicus, Wistar, Cerebral cortex, Membrane. The note with it: Not Active = under 50% inhibition at 10 µM.
Another assay deals with Acetylcholinesterase (Homo sapiens, UniProt P22303). Kind of assay: DRUGMATRIX: Acetylcholinesterase enzyme inhibition (substrate: acetylthiocholine). Type of assay: cell-based, HEK293. The note with it: hek293; Not Active = under 50% inhibition at 10 µM.
Sequence of Acetylcholinesterase (P22303 whole entry): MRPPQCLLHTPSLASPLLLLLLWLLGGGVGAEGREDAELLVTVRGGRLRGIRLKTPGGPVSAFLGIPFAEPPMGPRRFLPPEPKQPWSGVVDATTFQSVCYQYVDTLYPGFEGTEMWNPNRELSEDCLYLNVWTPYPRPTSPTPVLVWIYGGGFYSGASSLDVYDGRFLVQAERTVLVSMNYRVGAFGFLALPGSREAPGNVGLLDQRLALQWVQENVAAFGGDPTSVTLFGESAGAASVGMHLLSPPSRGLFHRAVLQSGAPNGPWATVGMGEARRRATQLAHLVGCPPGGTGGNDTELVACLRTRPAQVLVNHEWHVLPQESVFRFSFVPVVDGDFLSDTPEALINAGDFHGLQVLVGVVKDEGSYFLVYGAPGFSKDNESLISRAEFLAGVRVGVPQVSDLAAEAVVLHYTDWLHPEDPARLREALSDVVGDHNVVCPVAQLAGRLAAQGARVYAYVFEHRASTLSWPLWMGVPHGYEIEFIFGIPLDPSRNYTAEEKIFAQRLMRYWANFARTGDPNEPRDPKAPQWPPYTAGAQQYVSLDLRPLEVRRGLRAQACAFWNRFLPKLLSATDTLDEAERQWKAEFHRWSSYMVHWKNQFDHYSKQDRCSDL

Sequence of Vasopressin V1a receptor (P37288 whole entry): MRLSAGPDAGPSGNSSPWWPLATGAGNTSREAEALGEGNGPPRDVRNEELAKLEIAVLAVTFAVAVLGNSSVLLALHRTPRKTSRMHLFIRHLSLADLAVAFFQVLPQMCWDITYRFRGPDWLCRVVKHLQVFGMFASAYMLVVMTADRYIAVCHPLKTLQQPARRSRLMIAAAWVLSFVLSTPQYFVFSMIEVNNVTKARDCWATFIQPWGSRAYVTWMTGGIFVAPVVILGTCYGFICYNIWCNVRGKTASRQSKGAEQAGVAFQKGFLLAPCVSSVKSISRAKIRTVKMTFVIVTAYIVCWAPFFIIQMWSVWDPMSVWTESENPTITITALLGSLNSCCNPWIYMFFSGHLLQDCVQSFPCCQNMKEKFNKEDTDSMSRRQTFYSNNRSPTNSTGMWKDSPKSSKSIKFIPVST

On to `COc1c2occc2cc2ccc(=O)oc12` [METHOXSALEN], for which the IC50 result (in assay [1] (sf9); in assay [2]; in assay [3]; against Vasopressin V1a receptor; in assay [4]; at Acetylcholinesterase) was “Not Active” each time. In addition, the inhibitory constant (Ki) entry in assay [3] and in assay [4] was “Not Active” in each case.
As for `C[C@H]1C[C@@H]2[C@H]([C@@H](O)C[C@@]3(C)[C@H]2CC[C@]3(O)C(=O)CO)[C@@]2(C)C=CC(=O)C=C12` [METHYLPREDNISOLONE], the IC50 result (in assay [1] (sf9); in assay [2]; in assay [3]; against Vasopressin V1a receptor; in assay [4]; on Acetylcholinesterase) was “Not Active” in each case. The Ki entry in assay [3] and in assay [4] was “Not Active” in each case.
For `COc1cc2nc(N3CCN(C(=O)C4CCCO4)CC3)nc(N)c2cc1OC` (stereo unspecified) [TERAZOSIN], the half-maximal inhibitory concentration (IC50) in assay [1] (read-out: IC50) is 13.8 µM; in assay [2], “Not Active”; in assay [3] it was “Not Active”; against Vasopressin V1a receptor, “Not Active”; in assay [4] it was “Not Active”; against Acetylcholinesterase it was “Not Active”. For the same compound, the Ki in assay [1] is 5.19 µM; in assay [3], “Not Active”; in assay [4], “Not Active”.
For `CC(c1cc2ccccc2s1)N(O)C(N)=O` (stereo unspecified) [ZILEUTON], the IC50 result (in assay [1] (sf9); in assay [2]; in assay [3]; at Vasopressin V1a receptor; in assay [4]; on Acetylcholinesterase) was “Not Active” throughout. For the same compound, the Ki entry in assay [3] and in assay [4] was “Not Active” in each case.
As for `O=C1C(CC[S+]([O-])c2ccccc2)C(=O)N(c2ccccc2)N1c1ccccc1` (stereo unspecified) [SULFINPYRAZONE], the concentration for half-maximal inhibition (IC50) entry (in assay [1] (sf9); in assay [2]; in assay [3]; at Vasopressin V1a receptor; in assay [4]; against Acetylcholinesterase) was “Not Active” each time. Besides, the inhibitory constant (Ki) entry in assay [3] and in assay [4] was “Not Active” each time.
As for `CCN1CCC[C@H]1CNC(=O)c1cc(S(N)(=O)=O)ccc1OC` [LEVOSULPIRIDE], the IC50 result (in assay [1] (sf9); in assay [2]; in assay [3]; at Vasopressin V1a receptor; in assay [4]; against Acetylcholinesterase) was “Not Active” throughout. The Ki result in assay [3] and in assay [4] was “Not Active” in each case.
For the compound `CCN(CC)CCNC(=O)c1cc(S(C)(=O)=O)ccc1OC` [TIAPRIDE], the IC50 was 2.08 µM in assay [1] (read-out: IC50); “Not Active” in assay [2]; “Not Active” in assay [3]; “Not Active” against Vasopressin V1a receptor; “Not Active” in assay [4]; “Not Active” against Acetylcholinesterase. Further, the inhibition constant Ki in assay [1] was 0.779 µM; in assay [3], “Not Active”; in assay [4], “Not Active”.
`CCCCOc1cc(CC2CNC(=O)N2)ccc1OC` (stereo unspecified) [RO-201724]: the half-maximal inhibitory concentration (IC50) result (in assay [1] (sf9); in assay [2]; in assay [3]; against Vasopressin V1a receptor; in assay [4]; against Acetylcholinesterase) was “Not Active” each time. Besides, the Ki result in assay [3] and in assay [4] was “Not Active” in each case.
